Source: patent publication US7258861B2, “TNF-derived peptides for use in treating oedema” (Innogenetics N.V., priority 2001, dated 2007)

What was measured:
[1] = system: resident peritoneal macrophages; assay: Whole-cell patch clamp in resident peritoneal macrophages; format: cell-based, mouse; conditions: 30 min preincubation, acidic pH
Description: (§1) Animals, cells and reagents. Male CBA/J or C57BL/6 mice, as well as male TNFR ½^0/0 C57BL/6 mice deficient in TNF receptors (Bruce et al., 1996) provided by H. Bluethmann, F. Hoffmann-La Roche, Basel, Switzerland, were used at the age of 8–10 weeks. Their care was in accordance with institutional guidelines. Lung microvascular endothelial cells were isolated from CBA/J mice and characterized as described (Jackson et al., 1990) using magnetic beads (Dynabeads M-450, Dynal, Oslo, Norway), covalently bound to a purified rat-anti-mouse PECAM-1 monoclonal antibody (donated by B. Imhof, University of Geneva). Microvascular lung endothelial cells were resuspended in DMEM containing 2 mM L-glutamine, 100 U/ml penicillin, […], 20% FCS, 40 U/ml heparin and […] endothelial cell growth supplement (Brunschwig Chemie, Basel, Switzerland). For patch clamp experiments, cells were plated onto 35×10 mm easy grip Petri dishes (Beckton Dickinson, Plymouth, UK), pre-coated with 0.2% gelatin (Sigma, Buchs, Switzerland). Resident peritoneal macrophages, isolated in ice cold RPMI containing antibiotics and 10 U/ml Heparin, were left to adhere onto 35×10 mm easy grip Petri dishes for 4 h, after which the non-adherent cells were removed. […]
(§2) Electrophysiology. […] Currents were recorded with an Axopatch-200A amplifier (Axon Instrument Inc, Foster City, Calif., USA), low pass-filtered at 1 kHz. […]

[2] = Chloride efflux from SPQ-containing liposomes; conditions: 100% EPG liposomes, pH 6.1, 3 μg/ml
Method: Preparation of liposomes. Large unilamellar liposomes were prepared by reverse phase evaporation as previously described (Vecsey-Semjen et al., 1996). Liposomes were prepared of either 100% egg phosphatidylglycerol (EPG) or a mixture of EPC and EPG (1:1 W/W) in a buffer containing 100 mM KCl, 20 mM N-[2-Hydroxyethyl]piperazine-N′-[2-ethane-sulfonic acid] (HEPES), pH 7.4 and 1.5 mg/ml of 6-methoxy-N-(3-sulfopropyl)quinolinium (SPQ).
Choride efflux measurements. All fluorescence experiments were carried out using a PTI spectrofluorometer equipped with a thermostated cell holder (37° C.). The dye was excited at 350 nm and emission was recorded at 422 nm, both excitation and emission band widths were set to 5 nm. Liposomes were diluted to a final concentration of 50 μg/ml in a solution containing 100 mM KNO3 and 20 mM MES pH 6.1 or 20 mM HEPES, pH 7.4. Wild type and mutant TNF were added to a final concentration of 3 μg/ml.

[3] = system: resident peritoneal macrophages from mice deficient in both TNF receptor-1 and -2; assay: Whole-cell patch clamp in resident peritoneal macrophages of TNFR1/2-deficient mice; format: cell-based, mouse; conditions: cells lacking TNF receptors
Description: as §1, §2

[4] = system: lung microvascular endothelial cells; assay: Whole-cell patch clamp, membrane conductance in lung microvascular endothelial cells; format: cell-based, mouse
Description: Animals, cells and reagents. Male CBA/J or C57BL/6 mice, as well as male TNFR ½^0/0 C57BL/6 mice deficient in TNF receptors (Bruce et al., 1996) provided by H. Bluethmann, F. Hoffmann-La Roche, Basel, Switzerland, were used at the age of 8–10 weeks. Their care was in accordance with institutional guidelines. Lung microvascular endothelial cells were isolated from CBA/J mice and characterized as described (Jackson et al., 1990) using magnetic beads (Dynabeads M-450, Dynal, Oslo, Norway), covalently bound to a purified rat-anti-mouse PECAM-1 monoclonal antibody (donated by B. Imhof, University of Geneva). Microvascular lung endothelial cells were resuspended in DMEM containing 2 mM L-glutamine, 100 U/ml penicillin, […], 20% FCS, 40 U/ml heparin and […] endothelial cell growth supplement (Brunschwig Chemie, Basel, Switzerland). For patch clamp experiments, cells were plated onto 35×10 mm easy grip Petri dishes (Beckton Dickinson, Plymouth, UK), pre-coated with 0.2% gelatin (Sigma, Buchs, Switzerland). Resident peritoneal macrophages, isolated in ice cold RPMI containing antibiotics and 10 U/ml Heparin, were left to adhere onto 35×10 mm easy grip Petri dishes for 4 h, after which the non-adherent cells were removed. Cells were grown in RPMI 1640 containing 2 mM L-glutamine, 100 U/ml penicillin, 10 μpg/ml streptomycin and 10% fetal bovine serum (all from Gibco). For patch clamp, the macrophages ware used 24 h after isolation.
Electrophysiology. Cells were pretreated for 30 min with TNF, mutTNF and tip peptides at 37° C. in a buffer consisting of 145 mM NaCl, 3 mM KCl, 2mM CaCl2, 2mM MgCl2, 10 mM D-glucose, and 10mM Hepes, and pH-adjusted with NaOH to required value. Cells were then washed with the same buffer pH-adjusted at 7.3, and experiments were performed using the tight-seal, whole-cell recording technique. Currents were recorded with an Axopatch-200A amplifier (Axon Instrument Inc, Foster City, Calif., USA), low pass-filtered at 1 kHz. Digitalization and off-line analysis was performed using the WCP program (J. Dempster, Strathclyde Electrophysiology Software, Glasgow, UK). Patch pipettes were pulled from borosilicate glass and fire polished to have an open resistance of 3–5 MW with an internal solution containing […], 2 mM MgCl2, 10mM EGTA, 20 mM TEA-Cl, 10 mM D-glucose 10 mM Hepes, pH-adjusted to 7.3 with CsOH. Series resistances were kept under 10 MW. Capacitance and series resistance compensation were applied and set to 70%. All experiments were done at room temperature. Results are given as mean ±SEM, unless otherwise indicated. Analysis of variance was performed on currents and membrane conductance values, with post-hoc Dunn-Bonferroni test for significance of differences observed between two groups. A P value of 0.05 was considered significant.

TNF: E.coli-derived recombinant murine TNF
whole cell current [1]: significant increase in outward
chloride efflux (SPQ fluorescence) [2]: induced chloride efflux
whole cell current [3]: induced a voltage-dependent current
induced increase in conductance in presence of amiloride ([4]; 100 μM amiloride added during pretreatment at pH 6.0): abrogated
whole cell current / membrane conductance ([4]; 30 min preincubation at acidic pH (pH 6), TNF, mutTNF 100 ng/ml, peptides 100 μg/ml): significant increase in outward and, to a lesser extent, inward current
reversal potential of induced conductance ([4]; endothelial cells): about 0 mV
whole cell current / membrane conductance ([4]; preincubation at pH 7.3 (neutral pH)): did not occur
